Our source for the IC50 values is US20250114374A1, “BCL-2 INHIBITORS” (Newave Pharmaceutical Inc., priority 2021, published 2025).

pIC50: −log10 of the molar value.

Broadly, the pIC50 is the negative decadic logarithm of the IC50, by convention in mol/L.

One experiment concerns RS4; 11 with G101V mutation. Put plainly: In vitro anti-proliferation assay (ATPlite luminescence) in BCL-2-dependent ALL cell line RS4;11 with G101V mutation. Type of experiment: cell-based. The conditions noted are these: Homo sapiens, RS4-11, 72 h; read-out: RS411-G101V IC50. The method, boiled down:
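IC50 came from luminescent ATP quantification (ATPlite) following cell lysis. Compound dose ranges were applied for roughly 72 h to about 1×10^4 G101V-mutant RS4;11 cells per well, in 10% FBS medium.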
On the technique in general: ATP-based viability assays read luminescence as a measure of living cells.
For the compound `COc1cc(CN2CCN(C3CC4(CCN(c5ccc(C(=O)NS(=O)(=O)c6cc7c(c([N+](=O)[O-])c6)N[C@H](C6CCOCC6)CO7)c(N6c7cc8cc[nH]c8nc7O[C@H]7COCC[C@@H]76)c5)CC4)C3)[C@H](c3ccccc3C)C2)cnc1N1CCOCC1` [Example 143, 4-(2-((R)-4-((5-methoxy-6-morpholinopyridin-3-yl)methyl)-2-(o-tolyl)piperazin-1-yl)-7-azaspiro[3.5]nonan-7-yl)-N-(((R)-5-nitro-3-(tetrahydro-2H-pyran-4-yl)-3,4-dihydro-2H-benzo[b][1,4]oxazin-7-yl)sulfonyl)-2-((5aS,9aR)-6,7,9,9a-tetrahydro-1H-pyrano[3,4-b]pyrrolo[3′,2′:5,6]pyrido[3,2-e][1,4]oxazin-5(5aH)-yl)benzamide], the pIC50 is 8.15.

As to `CC[C@@H](c1ccc(F)c(F)c1)N1CCN(C2CC3(CCN(c4ccc(C(=O)NS(=O)(=O)c5cc6c(c([N+](=O)[O-])c5)N[C@H](C5CCOCC5)CO6)c(N5c6cc7cc[nH]c7nc6O[C@H]6COCC[C@@H]65)c4)CC3)C2)[C@H](c2ccccc2OC(C)C)C1` [Example 247, 4-(2-((R)-4-((S)-1-(3,4-difluorophenyl)propyl)-2-(2-isopropoxyphenyl)piperazin-1-yl)-7-azaspiro[3.5]nonan-7-yl)-N-(((R)-5-nitro-3-(tetrahydro-2H-pyran-4-yl)-3,4-dihydro-2H-benzo[b][1,4]oxazin-7-yl)sulfonyl)-2-((5aS,9aR)-6,7,9,9a-tetrahydro-1H-pyrano[3,4-b]pyrrolo[3′,2′:5,6]pyrido[3,2-e][1,4]oxazin-5(5aH)-yl)benzamide], the pIC50 was 7.34. Still for that read-out and setting: to `COc1cc([C@@H](C)N2CCN(C3CC4(CCN(c5ccc(C(=O)NS(=O)(=O)c6cc7c(c([N+](=O)[O-])c6)N[C@H](C6CCOCC6)CO7)c(N6c7cc8cc[nH]c8nc7O[C@H]7COCC[C@@H]76)c5)CC4)C3)[C@H](c3ccccc3C)C2)cnc1N1CCOC[C@@H]1C` [Example 194, 4-(2-((R)-4-((R)-1-(5-methoxy-6-((S)-3-methylmorpholino)pyridin-3-yl)ethyl)-2-(o-tolyl)piperazin-1-yl)-7-azaspiro[3.5]nonan-7-yl)-N-(((R)-5-nitro-3-(tetrahydro-2H-pyran-4-yl)-3,4-dihydro-2H-benzo[b][1,4]oxazin-7-yl)sulfonyl)-2-((5aS,9aR)-6,7,9,9a-tetrahydro-1H-pyrano[3,4-b]pyrrolo[3′,2′:5,6]pyrido[3,2-e][1,4]oxazin-5(5aH)-yl)benzamide] belongs 8.60.

The same experiment, now with this note: cellular anti-proliferative IC50, about 72 hours, medium with 10% FBS, ATPlite; read-out: RS411-G101V IC50.
With `CC(C)Oc1ccccc1[C@@H]1CN(Cc2ccc(F)c(F)c2)CCN1C1CC2(CCN(c3ccc(C(=O)NS(=O)(=O)c4cc5c(c([N+](=O)[O-])c4)N[C@H](C4CCOCC4)CO5)c(N4c5cc6c(F)c[nH]c6nc5O[C@H]5COCC[C@@H]54)c3)CC2)C1` [Example 236, 4-{2-[(2R)-4-[(3,4-difluorophenyl)methyl]-2-(2-isopropoxyphenyl)piperazin-1-yl]-7-azaspiro[3.5]nonan-7-yl}-2-[(3R,8S)-13-fluoro-2,5-dioxa-9,15,17-triazatetracyclo[8.7.0.0^{3,8}.0^{12,16}]heptadeca-1(10),11,13,16-tetraen-9-yl]-N-[(3R)-5-nitro-3-(oxan-4-yl)-3,4-dihydro-2H-1,4-benzoxazin-7-ylsulfonyl]benzamide], the pIC50 is 8.26. For the compound `CC(C)Oc1ccccc1[C@H]1CN(Cc2ccc(F)c(F)c2)CCN1C1CC2(CCN(c3ccc(C(=O)NS(=O)(=O)c4ccc(NCC5CCC(C)(O)CC5)c([N+](=O)[O-])c4)c(N4c5cc6cc[nH]c6nc5O[C@H]5COCC[C@@H]54)c3)CC2)C1` (stereo partly drawn) [Example 115, 4-{2-[(2S)-4-[(3,4-difluorophenyl)methyl]-2-(2-isopropoxyphenyl)piperazin-1-yl]-7-azaspiro[3.5]nonan-7-yl}-2-[(3R,8S)-2,5-dioxa-9,15,17-triazatetracyclo[8.7.0.0^{3,8}.0^{12,16}]heptadeca-1(10),11,13,16-tetraen-9-yl]-N-[3-nitro-4-({[(1r,4r)-4-hydroxy-4-methylcyclohexyl]methyl}amino)benzenesulfonyl]benzamide], the pIC50 is 7.56. As to `COc1ccc(CN2CCN(C3CC4(CCN(c5ccc(C(=O)NS(=O)(=O)c6ccc(NC[C@H]7CC[C@](C)(O)CC7)c([N+](=O)[O-])c6)c(N6c7cc8cc[nH]c8nc7O[C@H]7COCC[C@@H]76)c5)CC4)C3)[C@@H](c3ccccc3OC(C)C)C2)nc1OC` [Example 105, 4-{2-[(2S)-4-[(5,6-dimethoxypyridin-2-yl)methyl]-2-(2-isopropoxyphenyl)piperazin-1-yl]-7-azaspiro[3.5]nonan-7-yl}-2-[(3R,8S)-2,5-dioxa-9,15,17-triazatetracyclo[8.7.0.0^{3,8}.0^{12,16}]heptadeca-1(10),11,13,16-tetraen-9-yl]-N-[3-nitro-4-({[(1r,4r)-4-hydroxy-4-methylcyclohexyl]methyl}amino)benzenesulfonyl]benzamide], the pIC50 was 7.71. On the same count and under the same terms, next, `CC(C)Oc1ccccc1[C@@H]1CN(Cc2ccc(C(F)(F)F)nc2)CCN1C1CC2(CCN(c3ccc(C(=O)NS(=O)(=O)c4cc5c(c([N+](=O)[O-])c4)N[C@H](C4CCOCC4)CO5)c(N4c5cc6cc[nH]c6nc5O[C@H]5COCC[C@@H]54)c3)CC2)C1` [Example 261, 2-[(3R,8S)-2,5-dioxa-9,15,17-triazatetracyclo[8.7.0.0^{3,8}.0^{12,16}]heptadeca-1(10),11,13,16-tetraen-9-yl]-4-{2-[(2R)-2-(2-isopropoxyphenyl)-4-{[6-(trifluoromethyl)pyridin-3-yl]methyl}piperazin-1-yl]-7-azaspiro[3.5]nonan-7-yl}-N-[(3R)-5-nitro-3-(oxan-4-yl)-3,4-dihydro-2H-1,4-benzoxazin-7-ylsulfonyl]benzamide]: 8.41. Turning to `CC(C)Oc1ccccc1[C@@H]1CN(c2ccccn2)CCN1C1CC2(CCN(c3ccc(C(=O)NS(=O)(=O)c4cc5c(c([N+](=O)[O-])c4)N[C@H](C4CCOCC4)CO5)c(N4c5cc6cc[nH]c6nc5O[C@H]5COCC[C@@H]54)c3)CC2)C1` [Example 225, 2-[(3R,8S)-2,5-dioxa-9,15,17-triazatetracyclo[8.7.0.0^{3,8}.0^{12,16}]heptadeca-1(10),11,13,16-tetraen-9-yl]-4-{2-[(2R)-2-(2-isopropoxyphenyl)-4-(pyridin-2-yl)piperazin-1-yl]-7-azaspiro[3.5]nonan-7-yl}-N-[(3R)-5-nitro-3-(oxan-4-yl)-3,4-dihydro-2H-1,4-benzoxazin-7-ylsulfonyl]benzamide], the pIC50 was 6.75.

For the compound `COc1cc(CN2CCN([C@@H]3CC4(CCN(c5ccc(C(=O)NS(=O)(=O)c6ccc(NCC7CCC(C)(O)CC7)c([N+](=O)[O-])c6)c(N6c7cc8cc[nH]c8nc7O[C@H]7COCC[C@@H]76)c5)CC4)[C@@H]3C)[C@@H](c3ccccc3OC(C)C)C2)cnc1N1CCOCC1` (stereo partly drawn) [Example 120, 2-[(3R,8S)-2,5-dioxa-9,15,17-triazatetracyclo[8.7.0.0^{3,8}.0^{12,16}]heptadeca-1(10),11,13,16-tetraen-9-yl]-4-[(1S,2R)-2-[(2S)-2-(2-isopropoxyphenyl)-4-{[5-methoxy-6-(morpholin-4-yl)pyridin-3-yl]methyl}piperazin-1-yl]-1-methyl-7-azaspiro[3.5]nonan-7-yl]-N-[3-nitro-4-({[(1r,4r)-4-hydroxy-4-methylcyclohexyl]methyl}amino)benzenesulfonyl]benzamide], the pIC50 was 6.83.

With `CC(C)Oc1ccccc1[C@@H]1CN(Cc2ccc(F)c(F)c2)CCN1C1CC2(CCN(c3ccc(C(=O)NS(=O)(=O)c4ccc(NCC5CCOCC5)c([N+](=O)[O-])c4)c(N4c5cc6cc[nH]c6nc5O[C@H]5COCC[C@@H]54)c3)CC2)C1` [Example 186, 4-{2-[(2R)-4-[(3,4-difluorophenyl)methyl]-2-(2-isopropoxyphenyl)piperazin-1-yl]-7-azaspiro[3.5]nonan-7-yl}-2-[(3R,8S)-2,5-dioxa-9,15,17-triazatetracyclo[8.7.0.0^{3,8}.0^{12,16}]heptadeca-1(10),11,13,16-tetraen-9-yl]-N-{3-nitro-4-[(oxan-4-ylmethyl)amino]benzenesulfonyl}benzamide], the pIC50 is 7.97. In the case of `Cc1ccccc1[C@@H]1CN(CC2CCOCC2)CCN1C1CC2(CCN(c3ccc(C(=O)NS(=O)(=O)c4cc5c(c([N+](=O)[O-])c4)N[C@H](C4CCOCC4)CO5)c(N4c5cc6cc[nH]c6nc5O[C@H]5COCC[C@@H]54)c3)CC2)C1` [Example 184, 2-[(3R,8S)-2,5-dioxa-9,15,17-triazatetracyclo[8.7.0.0^{3,8}.0^{12,16}]heptadeca-1(10),11,13,16-tetraen-9-yl]-4-{2-[(2R)-2-(2-methylphenyl)-4-(oxan-4-ylmethyl)piperazin-1-yl]-7-azaspiro[3.5]nonan-7-yl}-N-[(3R)-5-nitro-3-(oxan-4-yl)-3,4-dihydro-2H-1,4-benzoxazin-7-ylsulfonyl]benzamide], the pIC50 is 7.39. Same read-out and setting: next, `CC(C)Oc1ccccc1[C@H]1CN(Cc2ccnc3c2OCC(C)(C)O3)CCN1C1CC2(CCN(c3ccc(C(=O)NS(=O)(=O)c4ccc(NCC5CCC(C)(O)CC5)c([N+](=O)[O-])c4)c(N4c5cc6cc[nH]c6nc5O[C@H]5COCC[C@@H]54)c3)CC2)C1` (stereo partly drawn) [Example 127, 4-(2-((S)-4-((3,3-dimethyl-2,3-dihydro-[1,4]dioxino[2,3-b]pyridin-8-yl)methyl)-2-(2-isopropoxyphenyl)piperazin-1-yl)-7-azaspiro[3.5]nonan-7-yl)-N-((4-((((1r,4r)-4-hydroxy-4-methylcyclohexyl)methyl)amino)-3-nitrophenyl)sulfonyl)-2-((5aS,9aR)-6,7,9,9a-tetrahydro-1H-pyrano[3,4-b]pyrrolo[3′,2′:5,6]pyrido[3,2-e][1,4]oxazin-5(5aH)-yl)benzamide]: 8.09.
